± gives the expanded uncertainty stated by the source.
Conditions: Crystal; visual observation

Row | Structure (SMILES) | Normal melting temperature [°C]
1 | O=c1cc(-c2ccccc2)c2cc(O)c(O)cc2o1 [6,7-dihydroxy-4-phenylcoumarin] | 269.50 ± 0.5
2 | COc1cc2oc(=O)cc(-c3ccccc3)c2cc1O [6-hydroxy-7-methoxy-4-phenylcoumarin] | 211.50 ± 0.5
